Values of other authors as cited in article PMC9182199, “Borylated 2,3,4,5-Tetrachlorophthalimide and Their 2,3,4,5-Tetrachlorobenzamide Analogues: Synthesis, Their Glycosidase Inhibition and Anticancer Properties in View to Boron Neutron Capture Therapy” (Molecules, 2022).

Legend:
yeast α-glucosidase = target: T1, yeast α-glucosidase (Saccharomyces cerevisiae, UniProt P53341); design: method as in PMID 18254235; settings: cited from earlier work
T1 construct: purchased Sigma

maltase = target: maltase; design: method as in PMID 18254235; settings: cited from earlier work
sucrase = test system: sucrase; design: method as in PMID 18254235; settings: cited from earlier work
human [1] = settings: oral; cited from earlier work
human [2] = settings: 5 min; cited from earlier work
[3] = cited from earlier work
rat = test system: rat; design: method as in earlier work; settings: oral; cited from earlier work

T1 sequence (P53341 whole entry): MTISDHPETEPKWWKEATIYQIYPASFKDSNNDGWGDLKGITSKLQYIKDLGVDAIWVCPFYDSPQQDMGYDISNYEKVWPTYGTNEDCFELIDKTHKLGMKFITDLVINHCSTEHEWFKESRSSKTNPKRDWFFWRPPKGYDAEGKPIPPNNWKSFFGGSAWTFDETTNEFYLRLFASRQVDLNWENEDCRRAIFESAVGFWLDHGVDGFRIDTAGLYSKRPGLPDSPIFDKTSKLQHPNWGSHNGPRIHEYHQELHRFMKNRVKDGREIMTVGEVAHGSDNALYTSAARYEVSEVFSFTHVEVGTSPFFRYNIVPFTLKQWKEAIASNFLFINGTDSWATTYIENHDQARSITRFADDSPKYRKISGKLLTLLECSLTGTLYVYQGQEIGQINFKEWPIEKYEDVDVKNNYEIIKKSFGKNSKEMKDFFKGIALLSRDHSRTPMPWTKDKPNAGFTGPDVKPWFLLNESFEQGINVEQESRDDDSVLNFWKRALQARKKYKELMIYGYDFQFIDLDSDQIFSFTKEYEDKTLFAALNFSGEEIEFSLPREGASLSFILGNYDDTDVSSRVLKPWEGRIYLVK

Which results are given for `O=C1c2ccccc2C(=O)N1c1ccc([N+](=O)[O-])cc1[N+](=O)[O-]` [N-(2,4-dinitrophenyl)phthalimide]?
IC50 (yeast α-glucosidase): 158 µM; IC50 (maltase): 51 µM; inhibition of sucrase (sucrase): no inhibition

Which results are given for `c1ccccc1` [benzene]?
LD50 (lethal dose) (human [1]): 125 mg/kg; LCLO (lethal concentration) (human [2]): 20,000 ppm; Immediately Dangerous to Life and Health concentration [3]: 500 ppm; Recommended Exposure Limit [3]: 0.1 ppm

For `OB(O)c1ccccc1` [phenylboronic acid], which LD50 (rat) is on record?
The LD50 was 740 mg/kg.
